Columns and labels:
[1] = Pharmacokinetic studies in beagle dogs, single oral dose; format: in vivo; settings: for CLz/F: single oral dose 2.5 mg/kg each, co-administered, plasma
Method: Male and female beagle dogs (n=4; 2 males and 2 females) were used in the study. A single oral dose of Alpelisib (2.5 mg/kg) and Compound 1 (^18O1-Alpelisib) (2.5 mg/kg) were co-administered (at a total dose of 5 mg/kg) in DMSO and 0.5% carboxymethyl cellulose sodium (CMC-Na) aqueous solution (5:95, v/v). Blood samples were collected for analysis of Alpelisib and ^18O1-Alpelisib at 0.25, 0.5, 1, 1.5, 2, 3, 4, 6, 8, 10, 12 and 24 h. In FIG. 4, lines labelled with -∘- and -Δ- represent the plasma concentrations of Alpelisib-^18O1 and Alpelisib, respectively, following oral administration of the same dose of Alpelisib-^18O1 and Alpelisib to the animals.

[2] = Pharmacokinetic studies in Sprague Dawley (SD) rats, oral gavage; format: in vivo; settings: both doses tested (2.5 and 0.322 mg/kg), greatest effect at low dose
Method: (a) SD rats, six in a group (n=6), were grouped randomly. Compound 1 (Alpelisib-^18O1) and Alpelisib were mixed and adjusted to 1:1 molar ratio in dosing solution (1.25 mg/mL); and the dosing solution was administered to the animals, via oral gavage, at a dose level of 2.5 mg/kg. Blood samples were collected at pre-set time points following drug administration, at 0.167, 0.5, 1, 2, 3, 4, 6, 8, and 24 hours (h). The blood samples were converted to plasma samples using standard techniques, and the latter samples were analyzed to determine the concentrations of Compound 1 and Alpelisib. In FIG. 1a, lines labelled with -∘- and --Δ-- represent the plasma concentrations of Alpelisib-^18O1 and Alpelisib, respectively, following oral administration of the same molar dose of Alpelisib-^18O1 and Alpelisib to the animals.
(b) Similarly, Compound 1 (Alpelisib-^18O1) and Alpelisib were administered to the animals (SD rats, n=4), via oral gavage, at a low dose (dose level of 0.322 mg/kg). Blood samples were collected at pre-set time points following drug administration, at 0.167, 0.5, 1, 2, 4, 6, 8, 10 and 24 hours (h). The blood samples were converted to plasma samples using standard techniques, and the latter samples were analyzed to determine the concentrations of Compound 1 and Alpelisib. […]

[3] = Pharmacokinetic studies in ICR mice, oral gavage; format: in vivo; settings: same dose
Method: ICR mice, 48, in 6 groups (n=8), were grouped randomly. Compound 1 (Alpelisib-^18O1) and Alpelisib were mixed and adjusted to 1:1 molar ratio in dosing solution (1.25 mg/mL); and the dosing solution was administered to the animals, via oral gavage, at a dose level of 2.5 mg/kg. Blood samples were collected (a group of 8 animals for each time point) at time points, after dosing, at 0.5, 1, 2, 4, 8, and 12 h. The blood samples were converted to plasma samples using standard techniques, and the latter samples were analyzed to determine the concentrations of Compound 1 and Alpelisib. In FIG. 2, lines labelled with -∘- and --Δ-- represent the plasma concentrations of Alpelisib-^18O1 and Alpelisib, respectively, following oral administration of the same dose of Alpelisib-^18O1 and Alpelisib to the animals.

[4] = M4 and M4-18O1 production in liver S9 culture media; format: in vitro ADME, monkey, human, mini pig, Wistar rat
Method: Stock solution (50 μL) containing equal molar concentration of Alpelisib and Alpelisib-^18O1 was diluted with pre-warmed (37° C., water bath) 0.1 M Tris-Acetate buffer; and the concentration of each compound in this working solution was 4.5 μM. In each incubation well were added the above working solution (50 μL) and a liver S9 solution (50 μL), mixed well. The sample was pre-incubated for 5 min, following by addition, to each well, of β-NADPH dosing solution (100 μL). The sample plate was incubated at 37° C., and analyzed at time points of 0, 15, 30, 60, and 240 min., in triplicates. Sample analysis: at a pre-set time-point, a stop solution (800 μL, acetonitrile) was added to each well; the sample was well-mixed (Vortex), and centrifuged at 12000 rpm for 5 minutes; the supernatant was transferred to analytical sample vial, and then analyzed with LC-MS/MS, for M4 and M4-^18O1. […] Liver S9 used in the experiment: (a) monkey liver S9, (b) pooled human S9, (c) mini pig liver S9, and (d) male Wistar rat Liver S9.

Row | Compound | CLz/F [1] [mL/min/kg] | plasma concentration compared with Alpelisib [2] | plasma concentration compared with Alpelisib [3] | plasma concentration compared with Alpelisib ([1]; oral, same dose) | concentration of the metabolite M4-18O1 compared to that of M4 from alpelisib ([4]; liver S9 (monkey, pooled human, mini pig, male Wistar rat), 37° C., β-NADPH, 0-240 min, equimolar co-incubation) | metabolism compared to that of Alpelisib ([4]; liver S9 incubation, taken together with PK results)
1 | Cc1nc(NC(=O)N2CCC[C@H]2C(N)=O)sc1-c1ccnc(C(C)(C)C(F)(F)F)c1 [Alpelisib, N-(4-methyl-5-(2-(2,2,2-trifluoro-1,1-dimethylethyl)-4-pyridinyl)-2-thiazolyl)aminocarbonyl-L-prolinamide, reference compound] | 6.83 | – | – | – | – | –
2 | Cc1nc(NC(=O)N2CCC[C@H]2C(N)=[18O])sc1-c1ccnc(C(C)(C)C(F)(F)F)c1 [Compound 1, N-(4-methyl-5-(2-(2,2,2-trifluoro-1,1-dimethylethyl)-4 pyridinyl)-2-thiazolyl)aminocarbonyl-L-prolin-^18O-amide] | 6.33 | higher than for Alpelisib | higher than for Alpelisib | higher than for Alpelisib | decreased | reduced
